The target in data set [1] is T1, pepsin (Sus scrofa, UniProt P00791).
T1 construct: purchased BDH
Description: Enzymatic activity of pepsin (adapted Anson method, denatured haemoglobin substrate, absorbance at 280 nm). The settings on record: for ΔAX at 280 nm: inhibitor 0.01% (suspension in H2O). Format: biochemical. On the procedure:
The method used to measure the enzymatic activity of pepsin alone or together with the inhibitory substance (pepstatin), consists of an adaptation of the Anson method [Anson et al, J. Gen. Physiol. 1931, 16, 59] which provides for the use of denatured haemoglobin as substrate. The enzymatic activity was determined after precipitation with trichloroacetic acid of the non-hydrolysed substrate. The activity of the enzyme was determined spectrophotometrically from the concentration of soluble peptides released by the proteolytic action.
T=37° C., pH=1,5, Anm, optical path 1 cm, reaction time 10 minutes. At pH=1.5, in which the experiments were conducted, there is a maximum activity of pepsin.
Haemoglobin 2%, pepsin 0,02%, inhibitor 0.01%.
Substrate: 250 mg of human haemoglobin are weighed in a 10 mL flask, it is brought up to volume with distilled water and left under stirring for 10 minutes in a water bath at 37° C. to obtain a solution 2.5%. The solution is passed through a filter paper to eliminate insoluble residues. 8 mL of the filtrate are taken and the volume is brought up to 10 mL with acidic water so as to have a final pH finale of 1.5 and a solution 2% (w/V).
Enzyme: 5 mg of pepsin are weighed in a 5 mL flask and it is brought up to volume with acidic water (pH=1.5).
Enzyme together with inhibitory substance: 5 mg of pepsin are weighed in a 5 mL flask. 0.5 mg/mL of a solution or suspension at pH=1.5 of the inhibitory substance are prepared separately (checking the pH with a pH meter and correcting it, if necessary, with hydrochloric acid 12 M in an amount such not to change the total volume). […]
0.25 mL of substrate (haemoglobin) are pipetted in a suitable vial and almost entirely submerged in a water bath thermostated at 37° C. It is left under magnetic stirring for 10 minutes at 37° C. 50 microlitres of the enzyme solution (pepsin) or of the enzyme together with the inhibitory substance (pepsin+pepstatin A) are then added and the system is kept under incubation for exactly 10 minutes. 0.5 mL of the trichloroacetic acid solution 5% are added after this period of time and then left for another 5 minutes. Exactly 3 mL of distilled water at pH=1.5 are added into the vial using a graduated pipette; the solution is stirred and filtered using a 0.45 μm syringe filter. An absorption spectrum (with absorbance (A) always below 1) with wavelengths comprised between 300 nm and 250 nm is recorded using a spectrophotometer using the absorbance value at 280 nm as reference.
Blank: 0.25 mL of substrate (haemoglobin) are pipetted in a suitable vial and almost entirely submerged in a water bath thermostated at 37° C. It is left under magnetic stirring for 10 minutes. 50 microlitres 0.5 mg/mL of the inhibitory substance solution (without enzyme) are then added and the system is kept under incubation for exactly 10 minutes. 0.5 mL of the trichloroacetic acid solution 5% are added after this period of time and then left for another 5 minutes.
50 microlitres of solution 1 mg/mL of enzyme without inhibitory substance are the introduced. Exactly 3 mL of distilled water at pH=1.5 are added into the vial using a graduated pipette, then the solution is stirred and filtered using a 0.45 μm syringe filter. An absorbance with wavelengths comprised between 300 nm and 250 nm is recorded using a spectrophotometer using the absorbance value at 280 nm as reference.
Each experiment was repeated at least twice. The final absorbance value (A) at 280 nm was the mean of the absorbance values obtained (with an uncertainty on the values always much lower than 10%). A ΔA, with ΔAx=A280sample substanceX−A280blank substance X and ΔAo=A280sample free pepsin−A280blank free pepsin in the event of absence of the inhibitory substance are associated with the pepsin-inhibiting substance. […]

Data set [2] is described as follows: physchem. Particulars: Solubility in ethanol (EtOH).

The record followed here is patent US20230181703A1, “COMPOSITION COMPRISING PEPSTATIN AND ALGINIC ACID OR A SALT THEREOF, AND USE THEREOF” (DRUGS MINERALS AND GENERICS ITALIA S.R.L. IN FORMA …, priority 2020, published 2023).

In brackets after ≈: the same amount, converted by molar mass. Where a SMILES comes first, the peptide text is derived from it. [ ]: non-standard residue; d: D form. The star is where a group is joined. Sta = CC(C)C[C@H](N)[C@@H](O)CC(=O)O; Isovaleryl = CC(C)CC(=O)*

A word on the solubility: it is the dissolved amount per volume that the medium holds.

T1 sequence (P00791 60-385): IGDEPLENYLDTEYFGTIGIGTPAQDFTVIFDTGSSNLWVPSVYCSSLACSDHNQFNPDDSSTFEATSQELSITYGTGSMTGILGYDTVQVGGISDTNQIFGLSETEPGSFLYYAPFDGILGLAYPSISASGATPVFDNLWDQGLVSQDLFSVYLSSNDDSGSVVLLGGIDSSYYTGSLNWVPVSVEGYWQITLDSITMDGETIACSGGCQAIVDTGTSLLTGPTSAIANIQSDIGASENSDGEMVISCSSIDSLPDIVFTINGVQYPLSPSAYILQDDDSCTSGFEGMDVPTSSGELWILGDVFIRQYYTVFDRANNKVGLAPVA

Turning to `CC(C)CC(=O)N[C@H](C(=O)N[C@H](C(=O)N[C@@H](CC(C)C)[C@@H](O)CC(=O)N[C@@H](C)C(=O)N[C@@H](CC(C)C)[C@@H](O)CC(=O)O)C(C)C)C(C)C` [PEPSTATIN, Isovaleryl-L-val-L-val-statyl-L-alanyl-statin] (Isovaleryl-VV[Sta]A[Sta]-OH), the “ΔAX at 280 nm” value in data set [1] (pepsin 0.02%, haemoglobin 2%, pH 1.5, 37° C., 10 minutes) worked out at 0; in data set [1] (pepsin 0.02%, haemoglobin 2%, pH 1.5, 37° C., 10 minutes, listed as Pepstatin), 0; in data set [1] (pepsin 0.02%, haemoglobin 2%, pH 1.5, 37° C., 10 minutes, listed as pepstatin) it was 0.004. In addition, in data set [1] (inhibitor 0.01%, pepsin 0.02%, haemoglobin 2%, pH 1.5, 37° C., 10 minutes), the “Residual activity with respect to the maximum activity measured” value worked out at 0%. In addition, the “Activity of pepsin in the presence of pepstatin 1 μM” value in data set [1] (pepstatin 1 μM diluted in H2O after dissolution in EtOH 1 mg/mL, added to haemoglobin 2% before pepsin, pH 1.5, 10 min (FIG. 3)) is given as “total abatement in the activity”. Moreover, the “Binding between the enzyme and the inhibitor (kinetics study)” value in data set [1] (pepstatin 1 μM in haemoglobin 2%, time scale of the experiment t=10 minutes) is given as “immediate binding”. Besides, the “Concentrations at which pepsin is inhibited / totally deactivated” value in data set [1] (statement in Conclusions, no picomolar test described) was “picomolar concentrations”. For the same molecule, the concentration in solution in data set [2] (solubility) came to 1000 µg/mL (≈ 1460 µM).
